In US8835634B2, “Quinoxalinone derivatives as insulin secretion stimulators, methods for obtaining them and use thereof for the treatment of diabetes” (Merck Patent GmbH, priority 2008, dated 2014):

Legend:
INS-1 cells = assay: Insulin secretion assay in INS-1 cells (glucose at 4.2 mM); type: cell-based, rat; details: glucose 4.2 mM, 1 h incubation, control = glucose 4.2 mM; for Insulin secretion, % of ctrl at 10 μM of cpd: 10 μM compound; for Insulin secretion, % of ctrl at 50 μM of cpd: 50 μM compound
Procedure: Culture of Pancreatic INS-1 Cells
INS-1 cells were cultured in complete medium, RPMI1640 containing 1 mM sodium pyruvate, 50 μM 2-mercaptoethanol, 2 mM glutamine, 10 mM HEPES, 100 IU/mL penicillin, and 100 μg/mL streptomycin (CM), supplemented with 10 mM glucose, and 10% (vol/vol) heat-inactivated fetal calf serum (FCS), as described by Asfari et al. (Endocrinology 130: 167-178, 1992).
INS-1 cells were plated and cultured in 48-well plates. After 2 days of culture, the medium was removed and cells were cultured for 24 h with a medium change to 5 mM glucose, 1% FCS. The cells were then washed with Krebs-Ringer Bicarbonate HEPES buffer (KRBH; 135 mM NaCl; 3.6 mM KCl; 5 mM NaHCO3; 0.5 mM NaH2PO4; 0.5 mM MgCl2; 1.5 mM CaCl2 and 10 mM HEPES; pH 7.4) 0.1% BSA containing 2.8 mM glucose and preincubated for 30 min at 37° C. in the same buffer. The cells were then washed twice and incubated for 1 h in KRBH 0.1% BSA containing 4.2 mM glucose and different concentrations of the tested molecule. Insulin concentration in the collected supernatants was measured with ELISA using rat insulin antibody (Insulin Rat Elit PLUS, cat. ref 10-1145-01).
Insulin secretion results are expressed in % of control (glucose 4.2 mM).
Insulin Secretion in INS-1 Cells (Glucose at 4.2 mM)

[1] = tested on: diabetic N0STZ rat islets; assay: Insulin secretion in diabetic N0STZ rat islets; type: cell-based; details: 90 min, Means±SEM
Procedure: Insulin Secretion in Diabetic N0STZ Rat Islets. Materials and Methods. Islets Isolation and Treatments.
14±3 weeks non-fasted N0STZ (PORTHA et al., 1974) male rats (Charles Rivers-Domaine des Oncins, I'Arbresle, France) were anesthetised with sodium pentobarbital (Nembutal®: 45 mg/kg in 5 ml/kg administered intra peritoneally) and body temperature was maintained with a heat lamp.
Rat pancreatic islets of Langerhans were isolated from the pancreas of 8 rats by collagenase P (Boehringer, Meylan, France) digestion. Islets were purified by sedimentation in Hanks balanced salt solution [NaCl (137 mM); KCl (5.36 mM); MgSO4, 7 H2O (0.81 mM); Na2HPO4, 12 H2O (0.34 mM); KH2PO4 (0.44 mM); CaCl2, 2 H2O (1.26 mM); NaHCO3 (4.17 mM)] followed by Ficoll gradient separation. Islets were then hand-picked under stereoscopic microscope and batches of 3 islets were incubated for 90 minutes at 37° C. with continuous shaking under a humidified condition (95% O2, 5% CO2) in 1 ml of Krebs/Hepes pH 7 solution [NaCl (115 mM), NaHCO3 (24 mM), KCl (5 mM), MgCl2 (1 mM), CaCl2, 2 H2O (1 mM), 0.2% of Bovine serum albumin (Fraction V, fatty acid free, Boehringer, Mannheim), 10 mM Hepes] containing the required glucose or compound concentration. Compounds were dissolved in DMSO at 2.10-2M stock solutions. They were then diluted at the required concentration in Krebs/Hepes buffer containing the required glucose concentration.
At the end of incubation, media was collected and insulin levels were measured using ELISA (EUROBIO, Courtaboeuf, France).
Islets were hand-picked and incubated in the presence of increasing concentrations of compounds in the presence of glucose at 2.8 or 8 mM. At the end of incubation, media was collected and insulin levels were measured using ELISA method. Results are expressed as % of glucose control (2.8 or 8 mM) and represent Means±SEM.

[2] = glucose 2.8 mM, compound 10−4 M

| SMILES | melting point | Insulin secretion, % of ctrl at 10 μM of cpd (INS-1 cells) | Insulin secretion, % of ctrl at 50 μM of cpd (INS-1 cells) | further results |
| --- | --- | --- | --- | --- |
| O=c1c(-c2ccccc2)nc2ccccc2n1CC(F)F [Example 3, 1-(2,2-difluoroethyl)-3-phenyl-quinoxalin-2(1H)-one] | 85 to 88 °C | – | – | – |
| O=c1c(-c2ccc(Cl)cc2)nc2ccccc2n1CC(F)F [Example 3-2, 3-(4-chlorophenyl)-1-(2,2-difluoroethyl)quinoxalin-2(1H)-one] | 133 to 136 °C | 540 % of ctrl | 666 % of ctrl | – |
| O=c1c(-c2ccc(Cl)cc2)nc2ccccc2n1C1CC1 [Example 3-3, 3-(4-chlorophenyl)-1-cyclopropyl-quinoxalin-2(1H)-one] | 102 to 105 °C | – | – | – |
| CCn1c(=O)c(-c2ccc(F)cc2)nc2cc(F)c(F)cc21 [Example 3-9, 1-ethyl-6,7-difluoro-3-(4-fluorophenyl)quinoxalin-2(1H)-one] | 116 to 118 °C | – | – | – |
| CCn1c(=O)c(-c2ccc(Cl)cc2)nc2cc(F)c(F)cc21 [Example 3-10, 1-ethyl-6,7-difluoro-3-(4-chlorophenyl)quinoxalin-2(1H)-one] | 135 to 137 °C | – | – | – |
| CCn1c(=O)c(-c2ccc(Cl)cc2)nc2ccccc21 [Example 6, 3(4-chlorophenyl)-1-ethyl-quinoxalin-2(1H)-one] | 138 to 140 °C | 325 % of ctrl | 495 % of ctrl | Insulin secretion, % of glucose control [1, 2]: 94 ± 17 % of glucose control; Insulin secretion, % of glucose control ([1]; glucose 8 mM, compound 10−4 M): 413 ± 7 % of glucose control; Insulin secretion, % of glucose control ([1]; glucose 8 mM, compound 10−5 M): 226 ± 12 % of glucose control; Insulin secretion, % of glucose control ([1]; glucose 8 mM, compound 10−6 M): 124 ± 8 % of glucose control; Insulin secretion, % of glucose control ([1]; glucose 8 mM, compound 10−7 M): 126 ± 9 % of glucose control |
| CCn1c(=O)c(-c2ccc(C)cc2)nc2ccccc21 [Example 6-4, 1-ethyl-3-(4-methylphenyl)quinoxalin-2(1H)-one] | – | 305 % of ctrl | 391 % of ctrl | – |
| CCn1c(=O)c(-c2ccc(F)cc2C)nc2ccccc21 [Example 6-5, 1-ethyl-3-(4-fluoro-2-methylphenyl)quinoxalin-2(1H)-one] | – | 287 % of ctrl | 325 % of ctrl | – |
| CCn1c(=O)c(-c2ccc(C(F)(F)F)cc2)nc2ccccc21 [Example 6-7, 1-ethyl-3-(4-trifluoromethylphenyl)quinoxalin-2(1H)-one] | – | 221 % of ctrl | 466 % of ctrl | – |

More lines, main results first:

| melting point | SMILES | Insulin secretion, % of ctrl at 10 μM of cpd (INS-1 cells) | Insulin secretion, % of ctrl at 50 μM of cpd (INS-1 cells) | further results |
| --- | --- | --- | --- | --- |
| 102 to 105 °C | O=c1c(-c2ccccc2)nc2ccccc2n1C1CC1 [Example 3-11, 1-cyclopropyl-3-phenylquinoxalin-2(1H)-one] | 371 % of ctrl | 468 % of ctrl | – |
| 179 to 182 °C | O=c1c(-c2ccc(F)cc2)nc2ccccc2n1C1CC1 [Example 3-14, 1-cyclopropyl-3-(4-fluorophenyl)quinoxalin-2(1H)-one] | – | – | – |
| 40 to 43 °C | CCCCn1c(=O)c(-c2ccccc2)nc2ccccc21 [Example 3-16, 1-butyl-3-phenyl-quinoxalin-2(1H)-one] | – | – | – |
| 117 to 119 °C | CCc1nc2cc(F)c(F)cc2n(CC)c1=O [Example 3-24, 1,3-diethyl-6,7-difluoro-quinoxalin-2(1H)-one] | – | – | – |
| 48 to 51 °C | CCCCn1c(=O)c(CC)nc2ccccc21 [Example 3-29, 1-butyl-3-ethylquinoxalin-2(1H)-one] | – | – | – |
| 72 to 75 °C | CCCc1nc2ccccc2n(C2CC2)c1=O [Example 3-32, 1-cyclopropyl-3-propylquinoxalin-2(1H)-one] | – | – | – |
| 77 to 80 °C | CCc1nc2ccccc2n(C2CC2)c1=O [Example 3-33, 1-cyclopropyl-3-ethylquinoxalin-2(1H)-one] | – | – | – |
| 151 to 154 °C | O=c1c(-c2ccc(F)cc2)nc2ccccc2n1CC(F)F [Example 3-34, 1-(2,2-difluoroethyl)-3-(4-fluorophenyl)quinoxalin-2(1H)-one] | – | – | – |
| 110 to 115 °C | CCn1c(=O)c(-c2ccc(F)cc2)nc2ccccc21 [Example 6-3, 1-ethyl-3-(4-fluorophenyl)quinoxalin-2(1H)-one] | 316 % of ctrl | 423 % of ctrl | Insulin secretion, % of glucose control [1, 2]: 114 ± 17 % of glucose control; Insulin secretion, % of glucose control ([1]; glucose 8 mM, compound 10−4 M): 440 ± 8 % of glucose control; Insulin secretion, % of glucose control ([1]; glucose 8 mM, compound 10−5 M): 168 ± 9 % of glucose control; Insulin secretion, % of glucose control ([1]; glucose 8 mM, compound 10−6 M): 135 ± 11 % of glucose control; Insulin secretion, % of glucose control ([1]; glucose 8 mM, compound 10−7 M): 133 ± 8 % of glucose control |
